The assay addresses T1, HDNO D6 (Paenarthrobacter nicotinovorans, UniProt P08159, A237T/A42S/E349L/E351D/N413H/V430A).
T1 construct: This full-length gene design was then used to introduce genetic diversity to create a library; His tag (N); made in house; host or cells: E. coli BL21 (DE3)
As to the kind of experiment: Biotransformation turnover frequencies of amine substrates (GC-FID). Format: biochemical, Arthrobacter nicotinovorans. Conditions: for TOF: HDNO D6 0.05 mg mL^−1, 10 mM substrate, 30° C., pH 8 100 mM buffer, conversions after 10 min; for Fold increase vs D2: TOF of HDNO D6 over HDNO D2 (0.2 mg ml^−1). As to the method: Chiral normal phase HPLC was performed on an Agilent HPLC system (G1379A degasser, G1312A binary pump, a G1367A well plate autosampler unit, a G1316A temperature-controlled column compartment and a G1315C diode array detector) (Agilent Technologies Inc., Santa Clara, CA) equipped with a CHIRALCEL OD-H (250 mm length, 4.6 mm diameter, 5 μm particle size) analytical column (Daicel Corp., Osaka, Japan). The typical injection volume was 10 μL and chromatograms were monitored at 265 nm. Gas chromatographic (GC) analysis was performed on an Agilent 6850 GC (Agilent Technologies Inc., Santa Clara, CA) with a flame ionization detector and autosampler equipped with a HP-1 column of length 30 m, 0.32 mm inner diameter and 0.25 μm film thickness (Agilent Technologies Inc., Santa Clara, CA).
A typical 500 μL reaction mixture in a 2 mL tube contained 10 mM amine, 0.05 to 1 mg mL^−1 of purified HDNO variant in pH 8 100 mM NaPi buffer. Reactions were incubated at 30° C. with 250 r.p.m shaking for different reaction times, after which they were quenched by the addition of 50 μL of 10 M NaOH and extracted twice with 500 μL tert-butyl methyl ether (HPLC grade, Merck Life Science UK Limited, Gillingham). The organic fractions were combined and dried over anhydrous MgSO4 and analysed by GC-FID (conversions) or HPLC (enantiomeric ratios) on a chiral stationary phase (see Chromatography section for details). Turnover frequencies (TOF, min^−1) were calculated as the moles of product formed/moles of enzyme min^−1 based on conversions obtained by GC-FID analysis (see Chromatography method). The same response factor was considered for both substrate and product.

T1 sequence (P08159 other isoform, or with tags, fused parts or gaps A42S/A237T/E349L/E351D/N413H/V430A/C432S): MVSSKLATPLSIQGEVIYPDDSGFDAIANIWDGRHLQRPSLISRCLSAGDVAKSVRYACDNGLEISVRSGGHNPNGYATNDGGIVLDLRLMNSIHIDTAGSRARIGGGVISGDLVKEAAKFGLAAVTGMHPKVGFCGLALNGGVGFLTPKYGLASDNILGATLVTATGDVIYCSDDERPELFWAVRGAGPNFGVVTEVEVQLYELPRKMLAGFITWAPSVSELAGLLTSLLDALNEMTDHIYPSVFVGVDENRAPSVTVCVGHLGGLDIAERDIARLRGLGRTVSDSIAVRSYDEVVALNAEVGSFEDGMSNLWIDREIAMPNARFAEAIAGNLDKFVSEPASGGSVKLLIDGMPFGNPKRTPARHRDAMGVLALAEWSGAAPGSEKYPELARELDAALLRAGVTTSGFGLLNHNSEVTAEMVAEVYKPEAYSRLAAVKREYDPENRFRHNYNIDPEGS

Consider `C1CC2CNCC2C1` (centres unmarked) [Mutant 1i], for which the TOF entry was “no measurable activity”.
For the compound `c1ccc([C@H]2CCCN2)cc1` [Mutant 1a, (R)-2-phenylpyrrolidine], the TOF worked out at 79.8 min⁻¹ and the “Fold increase vs D2” value amounted to 5.8 fold.
Regarding `CN(C)c1ccc(C2CCCN2)cc1` (centres unmarked) [Mutant 1b, 2-(4-dimethylaminophenyl)-pyrrolidine], the TOF amounted to 181.2 min⁻¹ and the “Fold increase vs D2” value came out at 10.2 fold.
On to `c1ccc(CCC2CCCCN2)cc1` (centres unmarked) [Mutant 1f], for which the TOF was 8.4 min⁻¹.
Compound `CC(N)c1ccccc1` (centres unmarked) [Mutant 1g] had a TOF of 0.66 min⁻¹.
`CCCCC[C@@H](C)N` [Mutant 1h] returned a TOF of 0.42 min⁻¹.
`Clc1cccc(C2CCCN2)c1` (centres unmarked) [Mutant 1d]: the TOF was found to be 135.6 min⁻¹.
Regarding `c1ccc(CCC2CCCN2)cc1` (centres unmarked) [Mutant 1c], the TOF is 28.8 min⁻¹ and the “Fold increase vs D2” value is given as 5.9 fold.

These data come from patent publication US20240282401A1, “METHODS FOR ENZYME ENGINEERING” (The University of Manchester, priority 2021, published 2024).
